From patent publication US20250212877A1, “SUGAR-CONTAINING COMPOSITION FOR FOLIAR SPRAY AND METHOD OF USING THE SAME” (priority 2022, published 2025)

Tested on: tomato leaf
Assay: Foliar absorption rate of sugar, Congo red method, tomato leaf
Details: summary of TABLE 1 over tomato and strawberry leaves; no adjuvant
From the text: In glass greenhouse, cucumber (Korean White, made by Farm Hannong, Korea) and tomato (Seogwangtomato, made by Farm Hannong, Korea) seeds were sown to raise plants. The young plants were transplanted to a vinyl cup having a diameter of 10 cm and cucumber was cultivated up to 4.5-leaf stage and tomato was cultivated up to 6.5-leaf stage. Strawberry young plants (KINGSBERRY) were given from strawberry laboratory, put in each cup pot having a diameter of 10 cm and cultivated up to 6 to 8-leaf stage in the greenhouse. […] Acetonitrile and nonionized water were mixed at 3:7 (volume/volume) to prepare a 30% acetonitrile aqueous solution, 8 ml was put into a test tube having an outer diameter of 32 mm and a length of 200 mm and the test tube was closed with a rubber lid. The leaves sprayed with the sugar aqueous solution was picked, put and cleaned by reverse shaking at the speed of 60 rpm for 2 minutes. The cleaning solution was analyzed by high-performance liquid chromatography (HPLC) to quantify Congo red and sugar, and the sugar absorption rate was calculated by the following Equation 1.

Absorption by tomato leaves and strawberry leaves, maximum: ≤ 1.3%
SMILES: OC[C@H]1O[C@@](CO)(O[C@H]2O[C@H](CO)[C@@H](O)[C@H](O)[C@H]2O)[C@@H](O)[C@@H]1O [sucrose]
